From PMC4865820, “Branched Peptide, B2088, Disrupts the Supramolecular Organization of Lipopolysaccharides and Sensitizes the Gram-negative Bacteria” (Scientific Reports, 2016)
Positions of bridges follow the written chain, without caps; N, C: chain ends. Non-standard residues stand in square brackets, D forms with d. Residues, ends and D or L forms follow the SMILES beside them. Chains are numbered I, II in the order given. Bip = N[C@@H](Cc1ccc(-c2ccccc2)cc1)C(=O)O; Nle = CCCC[C@H](N)C(=O)O; Nva = CCC[C@H](N)C(=O)O

Columns and labels:
K. pneumonia 4299 = assay: microbe, parasite or virus in culture; assay type: cell-based, K. pneumoniae; details: 24 h
Experimental: (§1) MIC of each peptide was determined using the microdilution method in a 96 well microtitre plates (SPL Life Sciences Co., Ltd, Korea). Two-fold serial dilutions of each peptide in Mueller-Hinton Broth (MHB) was prepared from a 1 mg/ml stock solution of the peptide in the same broth, to obtain a final concentration in the range of 0.0976–50 μg/ml in each well. Bacterial suspensions (P. aeruginosa ATCC 27853, P. aeruginosa 4877, P. aeruginosa 23155, K. pneumoniae ATCC 10031 and K. pneumoniae 4299) were prepared by suspending the overnight cultured bacteria in saline and adjusting the inoculum to ~10^8 colony forming units (CFU) per ml. A further 150-fold dilution was then prepared in MHB to achieve a final cell density of 10^5–10^6 CFU/ml. In each well, 100 μl of inoculum was mixed with the equal volume of peptides at their 2× concentration. Positive and negative controls contained 200 μl of inoculum (without any peptide) and broth alone (no peptide/inoculum) respectively. Another negative control in which MHB containing 200 μl of peptide alone in its highest concentration tested (50 μg/ml) was also included to ensure that the optical density measured in the test wells was not due to turbidity of the peptides in solution. The 96 well polystyrene plates were then incubated at 37 °C for 24 h and the optical density at 600 nm (OD600) was measured every 30 min continuously using a TECAN microplate reader (TECAN Infinite 200, Austria). All the experiments were performed in two independent duplicates and the MIC was determined as the lowest peptide concentration in which no visible growth was observed.

[1] = system: LPS (E. coli serotype 055:B5); assay: BODIPY TR cadaverine (BC) displacement assay with LPS; assay type: binding; details: no unit in table; ED50 values in μM; 5 mM HEPES pH 7.4; duplicates; read-out: BC50 (LPS binding)
In short: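 Peptides (0.02–25.6 μM, two-fold dilutions) mixed 1:1 with BODIPY TR cadaverine:LPS (E. coli 055:B5) mixture in 5 mM HEPES pH 7.4; fluorescence at 580/620 nm. Displacement normalized to polymyxin B (Fmax) and probe:LPS alone (F0); ED50 from curve fit, duplicates.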

P. aeruginosa 23155 = assay type: cell-based; details: 23155, 24 h
Experimental: as §1

K. pneumoniae ATCC10031 = assay type: cell-based; details: ATCC10031, 24 h
Experimental: as §1

P. aeruginosa ATCC 27853 [2] = assay: microbe, parasite or virus in culture; assay type: cell-based; details: ATCC 27853, 24 h
Experimental: as §1

P. aeruginosa ATCC 9027 = assay: Outer membrane permeability assay (NPN); assay type: cell-based; details: no unit in table; Fig. S5 axis [Peptide], μM; 10 μM NPN, 5 mM HEPES pH 7.4, ex 355/em 405 nm; average of two titrations; read-out: PC50 (peptide concentration for half-maximal NPN intensity, OM permeability)
Experimental: The ability of each peptide to permeabilize the OM of Gram-negative organisms was determined using the hydrophobic fluorescent probe 1-N-phenylnaphthylamine (NPN) as previously reported. P. aeruginosa ATCC 9027 cells from an overnight MHB culture were harvested after centrifuging at 3000 rpm for 10 minutes. The pellet was washed twice, suspended in 5 mM HEPES (N- 2-hydroxyethylpiperazine-N’-2 ethanesulfonic acid) buffer (pH 7.4) and adjusted to an OD600 of 0.200. A suspension containing 600 μl of bacteria cells and 1 μl of a concentrated stock solution of NPN was mixed into a 10 mm stirred quartz cuvette so that the final concentration of the probe remained 10 μM. Aliquots containing 1 μl of each peptide in various concentrations (100, 50, 25, 15, 10, 5, 2.5 and 1 μg/ml) were added upon NPN dye stabilization. The fluorescence intensity was monitored using a Quanta Master spectrophotometer with a constant slit width of 0.5 nm, excitation and emission wavelengths set at 355 nm and 405 nm respectively. The peptide concentration required for half-maximal intensity (PC50) was determined by sigmoidal curve fitting using Graphpad Prism software. The experimental data is average of two independent titration experiments.

P. aeruginosa DR4877/07 = assay type: cell-based; details: for Fractional inhibitory concentration of peptide/PMB, combination with Chloarm / Fractional inhibitory concentration of peptide/PMB, combination with Erythro / Fractional inhibitory concentration of peptide/PMB, combination with Levo / Fractional inhibitory concentration of peptide/PMB, combination with Tobra: first number in parenthesis; for Fractional inhibitory concentration of antibiotic, Chloarm combination / Fractional inhibitory concentration of antibiotic, Erythro combination / Fractional inhibitory concentration of antibiotic, Levo combination / Fractional inhibitory concentration of antibiotic, Tobra combination: second number in parenthesis
In short: (§2)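 Checkerboard combinations of peptide and antibiotic, each 2-fold diluted up to 1× MIC in MHB, were tested against ~10^6 CFU/ml final inoculum. Plates were incubated 24 h at 37 °C, with growth read at OD600. FICI was the sum of the combination-to-alone MIC ratios for each agent, and the lowest FICI from duplicate experiments was reported.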

P. aeruginosa ATCC 27853 [3] = assay type: cell-based; details: ATCC 27853; for Fractional inhibitory concentration of peptide/PMB, combination with Genta: first number in parenthesis; for Fractional inhibitory concentration of antibiotic, Genta combination: second number in parenthesis
In short: as §2

Row | Compound | Minimum Inhibitory Concentration against K. pneumonia 4299 (K. pneumonia 4299) [µM] | EC50 [1] [µM] | Minimum Inhibitory Concentration against P. aeruginosa 23155 (P. aeruginosa 23155) [µM] | Minimum Inhibitory Concentration against K. pneumoniae ATCC10031 (K. pneumoniae ATCC10031) [µM] | Minimum Inhibitory Concentration against P. aeruginosa ATCC 27853 (P. aeruginosa ATCC 27853 [2]) [µM] | EC50 (P. aeruginosa ATCC 9027) [µM] | Fractional inhibitory concentration of peptide/PMB, combination with Chloarm (P. aeruginosa DR4877/07) | Fractional inhibitory concentration of peptide/PMB, combination with Erythro (P. aeruginosa DR4877/07) | Fractional inhibitory concentration of peptide/PMB, combination with Levo (P. aeruginosa DR4877/07) | Fractional inhibitory concentration of peptide/PMB, combination with Tobra (P. aeruginosa DR4877/07) | Fractional inhibitory concentration of antibiotic, Chloarm combination (P. aeruginosa DR4877/07) | Fractional inhibitory concentration of antibiotic, Erythro combination (P. aeruginosa DR4877/07) | Fractional inhibitory concentration of antibiotic, Levo combination (P. aeruginosa DR4877/07) | Fractional inhibitory concentration of antibiotic, Tobra combination (P. aeruginosa DR4877/07) | Fractional inhibitory concentration of peptide/PMB, combination with Genta (P. aeruginosa ATCC 27853 [3]) | Fractional inhibitory concentration of antibiotic, Genta combination (P. aeruginosa ATCC 27853 [3])
1 | N=C(N)NCCC[C@H](NC(=O)CNC(=O)[C@@H](N)CCCNC(=N)N)C(=O)N[C@@H](CCCCN)C(=O)N[C@@H](Cc1ccc(-c2ccccc2)cc1)C(=O)N[C@@H](Cc1ccc(-c2ccccc2)cc1)C(=O)N[C@@H](CCCNC(=N)N)C(=O)N[C@@H](CCCNC(=N)N)C(=O)NCCCC[C@H](NC(=O)[C@H](CCCNC(=N)N)NC(=O)[C@H](CCCNC(=N)N)NC(=O)[C@H](Cc1ccc(-c2ccccc2)cc1)NC(=O)[C@H](Cc1ccc(-c2ccccc2)cc1)NC(=O)[C@H](CCCCN)NC(=O)[C@H](CCCNC(=N)N)NC(=O)CNC(=O)[C@@H](N)CCCNC(=N)N)C(=O)N[C@@H](CCCCN)C(=O)O [(RGRKFbiFbiRR)2KK] (I: H-RGRK[Bip][Bip]RRKK-OH / II: H-RGRK[Bip][Bip]RR; amide I:9-II:C; N-terminus and C-terminus assumed) | 19.6 | 2.33 ± 0.06 | 4.9 | 9.8 | 9.8 | 22.2 ± 1.6 | 0.5 | (0.5,0.5) | (0.5,0.5) | (0.25,0.25) | 0.06 | (0.5,0.5) | (0.5,0.5) | (0.25,0.25) | 0.5 | 0.06
2 | CCCC[C@H](NC(=O)[C@H](CCCCN)NC(=O)[C@H](CCCNC(=N)N)NC(=O)CNC(=O)[C@@H](N)CCCNC(=N)N)C(=O)N[C@@H](CCCC)C(=O)N[C@@H](CCCNC(=N)N)C(=O)N[C@@H](CCCNC(=N)N)C(=O)NCCCC[C@H](NC(=O)[C@H](CCCNC(=N)N)NC(=O)[C@H](CCCNC(=N)N)NC(=O)[C@H](CCCC)NC(=O)[C@H](CCCC)NC(=O)[C@H](CCCCN)NC(=O)[C@H](CCCNC(=N)N)NC(=O)CNC(=O)[C@@H](N)CCCNC(=N)N)C(=O)N[C@@H](CCCCN)C(=O)O [(RGRKNleuNleuRR)2KK] (I: H-RGRK[Nle][Nle]RRKK-OH / II: H-RGRK[Nle][Nle]RR; amide I:9-II:C; N-terminus and C-terminus assumed) | 5.3 | 1.62 ± 0.02 | 2.7 | 2.7 | 2.7 | 16.4 ± 0.1 | 0.5 | 0.5 | 0.5 | 0.06 | 0.06 | 0.03 | 0.25 | 0.5 | 0.5 | 0.01
3 | CCC[C@H](NC(=O)[C@H](CCCCN)NC(=O)[C@H](CCCNC(=N)N)NC(=O)CNC(=O)[C@@H](N)CCCNC(=N)N)C(=O)N[C@@H](CCC)C(=O)N[C@@H](CCCNC(=N)N)C(=O)N[C@@H](CCCNC(=N)N)C(=O)NCCCC[C@H](NC(=O)[C@H](CCCNC(=N)N)NC(=O)[C@H](CCCNC(=N)N)NC(=O)[C@H](CCC)NC(=O)[C@H](CCC)NC(=O)[C@H](CCCCN)NC(=O)[C@H](CCCNC(=N)N)NC(=O)CNC(=O)[C@@H](N)CCCNC(=N)N)C(=O)N[C@@H](CCCCN)C(=O)O [(RGRKNvalNvalRR)2KK] (I: H-RGRK[Nva][Nva]RRKK-OH / II: H-RGRK[Nva][Nva]RR; amide I:9-II:C; N-terminus and C-terminus assumed) | 21.8 | 1.45 ± 0.01 | 5.5 | 10.9 | 10.9 | 14.9 ± 1.2 | (0.25,0.25) | (0.5,0.5) | 0.5 | 0.25 | (0.25,0.25) | (0.5,0.5) | 0.25 | 0.13 |  | 0.13
